The record followed here is patent publication US20070275936A1, “Formulations and Treatment Methods” (priority 1998, published 2007).

The subject of one assay is Wistar rats. As to the kind of experiment: DNBS induced distal colitis in rats. It counts as in vivo. Conditions: for animals with moderate acute inflammation: 5 of 10 in immunosteroid vehicle controls; for animals with severe chronic inflammation: 14 days after DNBS challenge, 8 of 10 in immunosteroid vehicle controls; for diarrhea: 7-oxodehydroepiandrosterone 2 and 20 mg/mL s.c., sulfasalazine PO, AET 20 mg/kg. On the procedure: Groups of 3 male Wistar rats (180±20 grams) fasted for 24 hours before 2,4-dinitrobenzene sulfonic acid (DNBS) or saline challenge were used. Distal colitis was induced by intra-colonic instillation of 0.5 mL of an ethanolic solution of DNBS (30 mg in 0.5 mL of a 30% ethanol in saline solution) after which 2 mL of air was injected through the cannula to ensure that the solution remained in the colon. The volume used was 0.1 mL per injection of 2 and 20 mg/mL of 7-oxodehydroepiandrosterone in a liquid formulation, was administered by subcutaneous injection once a day for 6 days. The formulation contained […] of 7-oxodehydroepiandrosterone in a non-aqueous suspension that contained 2% benzyl alcohol w/v, 0.1% Brij 96 w/v and equal volumes of PEG 300 and propylene glycol. Concentrations of 2 mg/mL and 20 mg/mL were obtained by diluting the […] with vehicle that lacked the active substance.
The first dose was given 30 minutes after DNBS challenge. Sulfasalazine (30 mg/mL in 2% Tween 80 in distilled water) was administered orally (PO) once a day (10 mL/kg/day) for 7 days, the first two doses beginning 24 hours and 2 hours before DNBS challenge. The presence of diarrhea was recorded daily by examining the anal area. Animals were fasted for 24 hours prior to being sacrificed. Animals were sacrificed on day 7 or day 8 and their colons were removed and weighed. Before removal of the colon, signs of adhesion between the colon and other organs were recorded. Also, the presence of ulcerations was noted after weighing of each colon. The “net” change of colon-to-body weight (BW) ratio was normalized relative to saline-challenged baseline group. A 30% decrease in “net” colon-to-body weight ratio was considered significant.
A total of five studies were conducted. Data from the first study are reported in this report. The 7-oxodehydroepiandrosterone at 2 and 20 mg/mL, decreased the net colon-to-body weight ratio by 19 and by 14% relative to vehicle-treated group, respectively. […] The formula 1 compound 3β,7β,17β-trihydroxyandrost-5-ene (AET) was administered by subcutaneous injections of 2 and 20 mg/day for 5 or 6 days, with the first dose injected 30 minutes post-DNBS challenge. The AET formulation was the same as the 7-oxodehydroepiandrosterone formulation, except that AET replaced 7-oxodehydroepiandrosterone. AET decreased the net colon-to-body weight ratio by 15% and 21% relative to controls (see the table below). Animals treated with AET (20 mg/kg) had no diarrhea. […] The same formulations containing BrEA hemihydrate (100 mg/mL) or dehydroepiandrosterone (20 mg/mL) decreased the net colon-to-body weight ratio by 21 and 3%, respectively relative to controls.

The subject of assay [1] is Chloroquine sensitive T996/86 P. falciparum. In words: In vitro antimalarial testing (schizont inhibition / 3H-hypoxanthine incorporation). It counts as cell-based. On the procedure: For in vitro antimalarial testing, micro-titer plates were used. The concentration of drugs were prepared as pMol/well according to WHO standard procedures (WHO, 1990). The test compound was dissolved in 15% DMSO in sterile RPMI-1640. Both chloroquine sensitive (e.g., WS/97) and resistant (e.g., MN/97) isolates of Plasmodium species are used.
A schizont inhibition assay was performed as follows. The micro-titer plates were predosed with various concentrations of the test compound. 50 μL of parasitised erythrocyte suspension in RPMI-1640 (0.2 mL erythrocyte+0.3 mL serum+4-5 ml RPMI-1640) were dispensed in microtiter wells that contained various concentrations of drug. Triplicate readings were made for each concentration.
A ^3H-hypoxanthine incorporation assay was performed as follows. The testing was carried out according to the procedure of Desjardins et al. 1979. After 30 hr culture at 37 degrees C., the same microtiter plates from schizont inhibition assays with another triplicate wells were pulsed with ^3H-hypoxanthine for overnight. The cell suspensions were washed twice on millipore glass fiber filter with Millipore filter apparatus. The filter discs were counted for DPM by a Beckman LS6000 β-scintillation counter. The activity of the drug was measured by plotting DPM against concentration of drug.

In the next assay the test system is Plasmodium berghei. As to the kind of experiment: Lewis rat in vivo parasitemia study. Conditions: Lewis rats, chloroquine 40 mg/kg i.v. days 0-3.
The subject of the next assay is P. berghei HP15 ANKA. As to the kind of experiment: Four-day in vivo suppressive test in TO mice. Conditions: day 5 blood films, 5 equals control. Also noted: species or system Plasmodium berghei. As to the method:
The 4-day suppressive test has been widely used and it can be performed within a 1 week period. The test consists of the inoculation of parasitised erythrocytes on the first day of the experiment (D0), followed by an injection of the test compound, which is also administered on the 2nd, 3rd and 4th days of the protocol. On the 5th day, blood films are taken and antimalarial activity is assessed either by calculating parasitemia, or by scoring parasite numbers on a predetermined scale (i.e., 1-5).
The protocol is summarized as follows. Five female TO mice were used per test group. P. berghei HP15 ANKA parasites were collected by cardiac puncture using a heparinised syringe from a donor mouse having a 30+% parasitaemia. The blood was diluted with diluting agent (50% HIFCS+50% sterile PBS) to a final concentration of 1% parasitaemia or 1×10^7 infected erythrocytes per 0.2 mL of the infecting suspension. […] The steroid formulations were administered intraperitoneally 2 hours after parasite inoculation. The compounds were administered once a day starting on Do, and continued on the following three days. Blood films were made from tail blood on the day after the last dosing of compound and the blood was fixed with 100% methanol and stained with 10% Giemsa. Parasitaemias were scored on a scale of 0-5, where 5 is equal to the control.
An inoculum of 1% parasitaemia […], 0.2 mL per mouse (female strain TO mice), was delivered by intravenous injection. Drug administration commenced 2 hours after inoculation on Day 1 and continued for 3 days.

The subject of a further assay is BALB/c mice. As to the kind of experiment: Reversal of immunosenescence: HBsAg vaccination of aged mice. The format is in vivo. As to the method:
Healthy aged (20-month) or immunologically-mature (3-month) BALB/c mice were vaccinated with hepatitis B surface antigen (HBsAg) (2 μg; Recombivax-HB; Merck) and Alum (2.75 μg). The aged mice were vaccinated with the antigen and also received a single subcutaneous injection of either 0.3 mg or 3.0 mg of 3β,7β,17β-trihydroxyandrost-5-ene (AET), BrEA or 7-oxodehydroepiandrosterone, dehydroepiandrosterone or the vehicle (placebo control). The AET, BrEA hemihydrate or dehydroepiandrosterone was present in a formulation that contained 60 mg/mL of the compound suspended in 0.1% w/v carboxymethyl cellulose sodium in 0.9% saline. 7-Oxodehydroepiandrosterone was in a formulation that contained 60 mg/mL of the compound suspended in 0.1% w/v gum arabic in 0.9% saline. A concentration of 6 mg/mL was obtained by diluting the 60 mg/mL formulation with vehicle that lacked the active substance.
Blood samples were collected 14, 21 and 34 days after treatment and the sera were analyzed by ELISA to determine the concentration of HBsAg-specific IgG (total IgG). In addition, samples obtained on day 21 were analyzed to determine the concentration of HBsAg-specific IgG1 and IgG2a subclasses. The results summarized below were average values obtained with blood samples collected 21 days after vaccination of groups of 8 mice. Subcutaneous injection was performed after shaving the hair from the thighs of each mouse. The injected volume was 50 μL for compound (3.0 mg or 0.3 mg) or placebo, and for vaccine preparation. The vehicle control consisted of carboxymethylcellulose (0.5%) in saline (0.9%). Antibody titers were determined by ELISA.
Secondary antibody response. Later, 42 days after the initial exposure to HBsAg, serum samples were taken from the mice described in the previous section and these were tested for anti-HBsAg IgG. At this time-point, vaccine-specific IgG titers were either low or undetectable. Three days later (45 days after first vaccination), the mice were injected again with HBsAg in Alum, but this time, none of the mice received immunosteroid (secondary vaccination). Serum samples collected 7 days and 14 days after the second exposure to HBsAg vaccine were assayed for anti-HBsAg antibody. […] In contrast, in aged mice that had received no immunosteroid with the first HBsAg injection, low levels of anti-HBsAg were detectable, and only in 4 of the 8 mice in this group was antibody detectable. Increases in anti-HBsAg titers were seen following secondary vaccination in aged animals that had been treated with immunosteroid in conjunction with the first HBsAg exposure. The anti-HBsAg antibody titer in serum increased following secondary vaccination in all 8 mice in the groups of aged mice that were treated at primary vaccination with the higher dose (3 mg/mouse) of AET, BrEA or 7-oxodehydroepiandrosterone, or with dehydroepiandrosterone (0.3 mg/mouse). In those aged mice that had received the lower dose (0.3 mg/mouse) of AET, BrEA or 7-oxodehydroepiandrosterone at vaccination, an intermediate response was seen, with 6 of the 8 mice producing detectable anti-HBsAg in response to secondary vaccination.

Setting [2] is: DNBS rats, first study, groups of 3.
Setting [3] is: T996/86 P. falciparum in vitro, read-out: IC50.

Where two headings read alike, the source gives them in different places.

For `O=C(O)c1cc(/N=N/c2ccc(S(=O)(=O)Nc3ccccn3)cc2)ccc1O` [Sulfasalazine], the “animals with severe acute inflammation” value with Wistar rats (7 days after DNBS challenge, 3 of 10 in immunosteroid vehicle controls) was 3 animals. Besides, in the assay with Wistar rats (7 days after DNBS challenge), the “animals with moderate acute inflammation” value is 6 animals. For the same compound, the “animals with severe chronic inflammation” value in the assay with Wistar rats is on record as 2 animals. In the assay with Wistar rats (setting [2]), the adhesions entry is “no animals exhibited adhesions or colonic ulceration” and the colonic ulceration entry was “no animals exhibited adhesions or colonic ulceration”. Besides, in the assay on Wistar rats (DNBS rats), the diarrhea entry is on record as “all animals treated with Sulfazalazine had diarrhea”.

As a reminder, the % inhibition is the percentage by which the read-out fell short of the control. High values mean a strong effect, low ones a weak effect. A word on the IC50: it is the point on the concentration scale where inhibition reaches its midpoint. For Etianic Acid Methyl Ester, the “% inhibition” value in assay [1] (0.938 μM) is 47.1%; in assay [1] (1.875 μM), 43.4%; in assay [1] (3.25 μM), 41.4%; in assay [1] (7.5 μM), 45.3%; in assay [1] (15 μM), 47.4%; in assay [1] (30 μM), 61.5%. Besides, in assay [1] (setting [3]), the concentration for half-maximal inhibition (IC50) worked out at 17.5 µM.

Usually inhibition stands for the change of the read-out against control, counted positive when it falls. Read a low inhibition as a response near the control. In assay [1] (Plasmodium falciparum, T996), `CCN(CC)CCCC(C)Nc1ccnc2cc(Cl)ccc12` (centres unmarked) [Chloroquine, reference compound] yielded an IC50 of 0.009 µM, an inhibition at 0.00625 µM of 27.2%, an inhibition at 0.0125 µM of 86.8% and an inhibition at 0.025 µM of 94.5%. In assay [1] (Plasmodium falciparum, T996), this compound displayed an inhibition at 0.05 µM of 97.3%, an inhibition at 0.1 µM of 94.6% and an inhibition at 0.2 µM of 95.9%. For the same compound, the “% RBC parasitemia” value with Plasmodium berghei (Day 4, saline control 16%) amounted to 10%. For the same compound, the “% RBC parasitemia” value with Plasmodium berghei (Day 11, saline control 36%) is given as 16%. In the assay on P. berghei HP15 ANKA (3 mg/kg × 4 days i.p.), the “Parasitaemia Score (0-5)” value is 1.

Etienic Acid: in the assay with P. berghei HP15 ANKA (100 mg/kg × 4 days i.p.), the “Parasitaemia Score (0-5)” value is reported as 2.

Take Etienic Acid Methyl Ester: the “% inhibition” value in assay [1] (0.938 μM) was determined as 43.3%; in assay [1] (1.875 μM) it was 41%; in assay [1] (3.25 μM) it was 46%; in assay [1] (7.5 μM) it was 40.9%; in assay [1] (15 μM), 45.7%; in assay [1] (30 μM), 60%. In addition, in assay [1] (setting [3]), the IC50 is 19.5 µM.

In the case of `C[C@]12CC[C@H]3[C@@H]([C@@H](O)C=C4C[C@@H](O)CC[C@@]43C)[C@@H]1CC[C@@H]2O` [AET, 3β,7β,17β-trihydroxyandrost-5-ene], the “mice producing anti-HBsAg in response to secondary vaccination” value in the assay with BALB/c mice (groups of 8, 0.3 mg/mouse at primary vaccination) is reported as 6 mice. In addition, in the assay with BALB/c mice (groups of 8, 3 mg/mouse at primary vaccination), the “mice with increased anti-HBsAg antibody titer following secondary vaccination” value worked out at 8 mice. Moreover, in the assay on Wistar rats (7 days after DNBS challenge), the “animals with moderate acute inflammation” value amounted to 6 animals. The “animals with severe chronic inflammation” value with Wistar rats amounted to 3 animals. In the assay on Wistar rats (14 days after challenge, treatment began the same day as challenge), the animals with ulcers turned out to be 1 animal. The adhesions result with Wistar rats (setting [2]) is given as “Adhesion was absent”. The diarrhea entry in the assay on Wistar rats (DNBS rats) is recorded as “no diarrhea”.
